Columns and labels:
Assay type in all cases: biochemical
[1] = molecular target: Human Factor XIIa (Homo sapiens (Human), UniProt P00748); assay: Determination of FXIIa inhibition (fluorogenic substrate H-DPro-Phe-Arg-AFC, IC50 assay); settings: substrate H-DPro-Phe-Arg-AFC at Km, 25° C.; class scale A-G
Summary of the method: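 Human FXIIa incubated at 25° C with fluorogenic substrate H-DPro-Phe-Arg-AFC at its Km concentration and varying compound concentrations. Fluorescence release monitored over 5 min at 25° C; linear rate expressed as % of uninhibited activity to derive IC50.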

[2] = molecular target: Plasma Kallikrein (Homo sapiens (Human), UniProt P03952); assay: Determination of related protease inhibition: Plasma Kallikrein (fluorogenic substrate at Km); settings: 25° C., read-out: IC50 (human PKal)
Summary of the method: (§1)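 Human enzymes incubated with varied inhibitor concentrations and fluorogenic substrate at Km. Fluorescence release followed over 5 min at 25 °C; linear rate expressed as % activity, IC50 as inhibitor concentration giving 50% inhibition of uninhibited enzyme.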

[3] = molecular target: FXa (Homo sapiens (Human), UniProt P00742); assay: Determination of related protease inhibition: FXa (fluorogenic substrate at Km); settings: 25° C.
Summary of the method: as §1

[4] = molecular target: Thrombin (Homo sapiens (Human), UniProt P00734); assay: Determination of related protease inhibition: Thrombin (fluorogenic substrate at Km); settings: 25° C.
Protocol: (§2) Determination of Related Protease Inhibition
(§3) In vitro inhibition of related proteases was determined using an ([…] assay based on standard literature methods (see e.g. Shori et al., Biochem. Pharmacol., 1992, 43, 1209; Bouckaert et al., European Journal of Medicinal Chemistry 110 (2016) 181). Human serine protease enzymes Plasma Kallikrein, KLK1, FXa, Plasmin, Thrombin and Trypsin were assayed for enzymatic activity using an appropriate fluorogenic substrate at Km concentration, FXIa at fixed substrate concentration of 100 μM, and various concentrations of the test compound. Protease activity was measured by monitoring the accumulation of liberated fluorescence from the substrate over […]. The linear rate of fluorescence increase per minute was expressed as percentage (%) activity. IC50 values were calculated as the concentration of inhibitor giving 50% inhibition of the uninhibited enzyme activity (100%).

[5] = molecular target: FXIa (Homo sapiens (Human), UniProt P03951); assay: Determination of related protease inhibition: FXIa (fixed substrate concentration of 100 μM); settings: 25° C.
Protocol: as §2, §3

[6] = molecular target: KLK1 (Homo sapiens (Human), UniProt P06870); assay: Determination of related protease inhibition: KLK1 (fluorogenic substrate at Km); settings: 25° C.
Summary of the method: as §1

Sequence of FXa (P00742 235-488): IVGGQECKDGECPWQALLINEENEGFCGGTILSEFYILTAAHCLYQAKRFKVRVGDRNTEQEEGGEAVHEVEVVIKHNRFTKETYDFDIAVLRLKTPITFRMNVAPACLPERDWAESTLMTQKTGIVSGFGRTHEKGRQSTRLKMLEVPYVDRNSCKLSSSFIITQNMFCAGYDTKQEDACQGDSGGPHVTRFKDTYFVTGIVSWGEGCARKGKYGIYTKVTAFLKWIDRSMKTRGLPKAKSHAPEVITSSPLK
Sequence of FXa (P00742 41-179 partner): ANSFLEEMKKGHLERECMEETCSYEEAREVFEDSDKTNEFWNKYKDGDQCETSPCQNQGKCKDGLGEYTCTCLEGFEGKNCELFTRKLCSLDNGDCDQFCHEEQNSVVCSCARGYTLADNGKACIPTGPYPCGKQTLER
Sequence of KLK1 (P06870 25-262): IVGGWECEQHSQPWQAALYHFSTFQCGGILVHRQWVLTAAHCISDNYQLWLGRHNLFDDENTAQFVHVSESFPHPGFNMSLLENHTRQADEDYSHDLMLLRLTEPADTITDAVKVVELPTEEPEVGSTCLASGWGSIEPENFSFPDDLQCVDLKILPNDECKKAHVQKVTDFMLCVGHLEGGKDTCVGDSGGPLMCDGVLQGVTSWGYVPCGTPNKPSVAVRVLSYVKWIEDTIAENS
Sequence of Human Factor XIIa (P00748 373-615): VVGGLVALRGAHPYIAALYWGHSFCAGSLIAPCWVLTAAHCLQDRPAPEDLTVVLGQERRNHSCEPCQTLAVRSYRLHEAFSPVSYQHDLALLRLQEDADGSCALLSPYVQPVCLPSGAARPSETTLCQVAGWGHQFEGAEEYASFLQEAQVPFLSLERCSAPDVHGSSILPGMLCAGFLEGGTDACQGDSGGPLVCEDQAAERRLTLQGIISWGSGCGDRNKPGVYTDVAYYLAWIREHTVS
Sequence of Plasma Kallikrein (P03952 391-638): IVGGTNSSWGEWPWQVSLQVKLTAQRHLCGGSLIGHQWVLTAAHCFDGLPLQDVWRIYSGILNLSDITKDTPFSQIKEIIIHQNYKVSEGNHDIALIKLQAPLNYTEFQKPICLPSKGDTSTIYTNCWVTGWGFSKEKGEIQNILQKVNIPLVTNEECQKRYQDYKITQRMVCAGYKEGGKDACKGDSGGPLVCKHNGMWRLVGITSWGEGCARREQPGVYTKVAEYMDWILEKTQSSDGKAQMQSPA
Sequence of Plasma Kallikrein (P03952 20-390 partner): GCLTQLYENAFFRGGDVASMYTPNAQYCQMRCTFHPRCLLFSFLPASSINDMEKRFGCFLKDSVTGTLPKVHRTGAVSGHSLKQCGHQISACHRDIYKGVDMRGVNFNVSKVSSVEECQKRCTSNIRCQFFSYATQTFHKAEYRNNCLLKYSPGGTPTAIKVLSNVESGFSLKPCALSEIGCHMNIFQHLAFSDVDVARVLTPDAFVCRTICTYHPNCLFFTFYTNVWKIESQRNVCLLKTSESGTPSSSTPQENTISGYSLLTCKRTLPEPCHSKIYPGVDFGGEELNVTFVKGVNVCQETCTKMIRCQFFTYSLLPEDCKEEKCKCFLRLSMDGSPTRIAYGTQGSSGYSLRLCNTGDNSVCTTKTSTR
Sequence of FXIa (P03951 388-625): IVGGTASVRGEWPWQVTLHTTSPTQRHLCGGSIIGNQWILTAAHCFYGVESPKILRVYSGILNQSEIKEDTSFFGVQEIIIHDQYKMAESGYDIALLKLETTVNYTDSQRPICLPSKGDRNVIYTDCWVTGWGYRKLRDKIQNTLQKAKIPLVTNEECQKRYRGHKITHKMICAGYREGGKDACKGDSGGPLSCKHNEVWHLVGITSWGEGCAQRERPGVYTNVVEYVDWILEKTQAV
Sequence of FXIa (P03951 19-387 partner): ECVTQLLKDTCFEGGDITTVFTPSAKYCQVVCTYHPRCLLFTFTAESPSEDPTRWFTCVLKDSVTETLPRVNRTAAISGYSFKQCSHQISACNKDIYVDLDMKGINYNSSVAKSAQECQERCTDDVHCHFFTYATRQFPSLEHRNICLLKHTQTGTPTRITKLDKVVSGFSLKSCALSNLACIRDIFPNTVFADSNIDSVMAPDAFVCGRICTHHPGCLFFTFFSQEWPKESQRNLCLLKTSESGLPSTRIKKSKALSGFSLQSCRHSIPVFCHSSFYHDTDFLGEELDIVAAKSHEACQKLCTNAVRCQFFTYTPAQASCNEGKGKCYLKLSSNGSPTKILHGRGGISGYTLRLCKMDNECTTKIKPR

SMILES | IC50 [1] | IC50 [2] | IC50 [3] | IC50 [4] | IC50 [5] | IC50 [6]
CN1CCC(CCn2cc(CNc3ccc4c(N)nccc4c3)cn2)CC1 [Example 3254, N6-((1-(2-(1-methylpiperidin-4-yl)ethyl)-1H-pyrazol-4-yl)methyl)isoquinoline-1,6-diamine] | 0.3 to 1 µM | 3 to 10 µM | 3 to 10 µM | 3 to 10 µM | > 20 µM | –
Nc1nccc2cc(NCc3ccc(COC4CCN(CC(F)F)CC4)cc3)ccc12 [Example 2196, 6-N-{[4-({[1-(2,2-difluoroethyl)piperidin-4-yl]oxy}methyl)phenyl]methyl}isoquinoline-1,6-diamine] | 1 to 3 µM | 10 to 40 µM | 10 to 40 µM | 10 to 40 µM | > 40 µM | –
Nc1nccc2cc(NCc3ccc(COC4CCN(C5CC5)CC4)cc3)ccc12 [Example 2195, 6-N-[(4-{[(1-cyclopropylpiperidin-4-yl)oxy]methyl}phenyl)methyl]isoquinoline-1,6-diamine] | 0.3 to 1 µM | 3 to 10 µM | 10 to 40 µM | 10 to 40 µM | > 40 µM | –
CC(C)N1CCC(COc2ccc(CNc3ccc4c(N)nccc4c3)cn2)CC1 [Example 1012, N6-((6-((1-isopropylpiperidin-4-yl)methoxy)pyridin-3-yl)methyl)isoquinoline-1,6-diamine] | 0.1 to 0.3 µM | 1 to 3 µM | 10 to 40 µM | 3 to 10 µM | > 20 µM | –
Nc1nccc2cc(NCc3ccnc(-c4cccc(CN5CCCC5)c4)c3)ccc12 [Example 5434, N6-((2-(3-(pyrrolidin-1-ylmethyl)phenyl)pyridin-4-yl)methyl)isoquinoline-1,6-diamine] | 1 to 3 µM | 1 to 3 µM | 1 to 3 µM | 1 to 3 µM | > 40 µM | –
CCN1CCC(OCc2ccc(CNc3cccc4c(N)nccc34)c(F)c2)CC1 [Example 2201, 5-N-[(4-{[(1-ethylpiperidin-4-yl)oxy]methyl}-2-fluorophenyl)methyl]isoquinoline-1,5-diamine] | 0.01 to 0.1 µM | 10 to 40 µM | > 20 µM | > 20 µM | > 20 µM | –
Cc1cn2c(n1)CC(COc1cc(CNc3cccc4c(N)nccc34)ccn1)CC2 (stereo not shown) [Example 4319, N5-[[2-[(2-methyl-5,6,7,8-tetrahydroimidazo[1,2-a]pyridin-7-yl)methoxy]-4-pyridyl]methyl]isoquinoline-1,5-diamine] | 0.1 to 0.3 µM | 3 to 10 µM | 10 to 40 µM | > 40 µM | – | 3 to 10 µM
CN1CCC(CNc2cc(CNc3cccc4c(N)nccc34)ccn2)CC1 [Example 4286, N5-((2-(((1-methylpiperidin-4-yl)methyl)amino)pyridin-4-yl)methyl)isoquinoline-1,5-diamine] | 0.3 to 1 µM | 10 to 40 µM | > 40 µM | > 40 µM | – | 3 to 10 µM
Cn1ccnc1CC(=O)NCc1ccc(CNc2cccc3c(N)nccc23)c(F)c1 [Example 2211, N-(4-(((1-aminoisoquinolin-5-yl)amino)methyl)-3-fluorobenzyl)-2-(1-methyl-1H-imidazol-2-yl)acetamide] | 10 to 40 µM | > 40 µM | > 40 µM | > 40 µM | – | 10 to 40 µM
CN1CC2CCC(C1)C2COc1cc(CNc2ccc3c(N)nccc3c2)ccn1 (stereo not shown) [Example 4270, N6-((2-((3-methyl-3-azabicyclo[3.2.1]octan-8-yl)methoxy)pyridin-4-yl)methyl)isoquinoline-1,6-diamine] | 0.01 to 0.1 µM | 3 to 10 µM | 0.01 to 0.1 µM | 1 to 3 µM | – | 0.3 to 1 µM
Cc1cc(NCc2ccnc(OCC3CCN(C)CC3)c2)cc2ccncc12 [Example 4464, 8-methyl-N-((2-((1-methylpiperidin-4-yl)methoxy)pyridin-4-yl)methyl)isoquinolin-6-amine] | 1 to 3 µM | > 20 µM | > 100 µM | > 4 µM | – | 3 to 10 µM
CN1CC2(CC(OCc3ccc(CNc4cccc5c(N)nccc45)c(F)c3)C2)C1 [Example 2206, 5-N-[[2-fluoro-4-[(2-methyl-2-azaspiro[3.3]heptan-6-yl)oxymethyl]phenyl]methyl]isoquinoline-1,5-diamine] | 3 to 10 µM | 10 to 40 µM | > 40 µM | > 40 µM | – | 10 to 40 µM
Cn1ccnc1COCc1ccc(CNc2cccc3c(N)nccc23)c(F)c1 [Example 2207, N5-(2-fluoro-4-(((1-methyl-1H-imidazol-2-yl)methoxy)methyl)benzyl)isoquinoline-1,5-diamine] | 1 to 3 µM | 3 to 10 µM | 10 to 40 µM | 10 to 40 µM | – | 10 to 40 µM
CN1CCN(CCc2ccc(CNc3cccc4c(N)nccc34)c(F)c2)CC1 [Example 2182, 5-N-({2-fluoro-4-[2-(4-methylpiperazin-1-yl)ethyl]phenyl}methyl)isoquinoline-1,5-diamine] | 0.3 to 1 µM | > 40 µM | > 40 µM | > 40 µM | – | 10 to 40 µM
Cc1cc2c(NCc3ccc(NCC4CCN(C)CC4)nc3)ccnc2[nH]1 [Example 1202, 2-Methyl-N-((6-(((1-methylpiperidin-4-yl)methyl)amino)pyridin-3-yl)methyl)-1H-pyrrolo[2,3-b]pyridin-4-amine] | 0.1 to 0.3 µM | > 40 µM | 10 to 40 µM | 10 to 40 µM | – | > 40 µM
CN1CCC(NC(=O)c2cc(CNc3cccc4c(N)nccc34)ccn2)CC1 [Example 4289, 4-(((1-aminoisoquinolin-5-yl)amino)methyl)-N-(1-methylpiperidin-4-yl)picolinamide] | 0.3 to 1 µM | > 40 µM | > 40 µM | > 40 µM | – | 10 to 40 µM
CN1C[C@H](COc2cc(CNc3cccc4c(N)nccc34)ccn2)OC1=O [Example 4280, (5R)-5-{[(4-{[(1-aminoisoquinolin-5-yl)amino]methyl}pyridin-2-yl)oxy]methyl}-3-methyl-1,3-oxazolidin-2-one] | 10 to 40 µM | > 40 µM | > 40 µM | > 40 µM | – | 10 to 40 µM
CN1CC2CC1CC2COc1cc(CNc2ccc3c(N)nccc3c2)ccn1 (stereo not shown) [Example 4277, N6-((2-((2-methyl-2-azabicyclo[2.2.1]heptan-5-yl)methoxy)pyridin-4-yl)methyl)isoquinoline-1,6-diamine] | 0.1 to 0.3 µM | 3 to 10 µM | 0.3 to 1 µM | 1 to 3 µM | – | 1 to 3 µM
CN1CCC(CNc2ccc(CNc3ccc4c(N)nccc4c3)cn2)CC1 [Example 1033, N6-((6-(((1-methylpiperidin-4-yl)methyl)amino)pyridin-3-yl)methyl)isoquinoline-1,6-diamine] | 0.01 to 0.1 µM | 1 to 3 µM | 3 to 10 µM | 3 to 10 µM | – | 0.3 to 1 µM
CN1CC2CC1CC2COc1cc(CNc2cccc3c(N)nccc23)ccn1 (stereo not shown) [Example 4276, 5-N-{[2-({2-methyl-2-azabicyclo[2.2.1]heptan-5-yl}methoxy)pyridin-4-yl]methyl}isoquinoline-1,5-diamine] | 0.3 to 1 µM | > 40 µM | 3 to 10 µM | > 40 µM | – | 3 to 10 µM
